Series [1] is described as follows: Lability method (Zincon metallochromic dye colour change). Format: physicochemical. The settings on record: 30 mg/10 ml water, pH 7-9, Zincon dye. The source says:
Particulate zinc materials differ with respect to how strongly the zinc ion (Zn^2+) is held by the counterion or counterions. […] To determine which particulate zinc materials provide labile Zn^2+, a test is developed using a metallochromic dye that changes color upon coordinating Zn 2+. The response is a binary visual assessment of whether or not the color changes, indicating zinc-binding.
The method is based on the commercial metallochromic dye Zincon sodium salt (2-carboxy-2′-hydroxy-5′-sulfoformazyl-benzene sodium salt, such as Cat. No. 201332 available from Sigma-Aldrich, St. Louis, Mo.). Zincon changes from an orange to blue color upon binding zinc ion and provides the basis for detecting available Zn 2+. The specific procedure involves making a stock solution of Zincon in ethanol (50 mg/10 ml ethanol). The particulate zinc material is then added to water (30 mg/10 ml water) and agitated vigorously (pH should be 7-9). Three to four drops of Zincon solution are then added to the particulate zinc material in water, agitated, and a visual assessment of color change made.

Another series relates to IL-1α. The series can be described thus: Epiderm culture assay with quantification of IL-1α (test sample mixed with IIBM). The class given is cell-based, human. The settings on record: 16 hours. The text has this: (§1) Epiderm Culture Assay With Quantification of IL-1α and Viability
(§2) In order to evaluate the efficacy of the materials and embodiments of the present invention, a bio-engineered human skin construct is used to model the response of normal human epidermis. The EPIDERM™ skin model (as available from MatTek Corporation, Ashland, Mass.) is a three-dimensional, cornified, air-interfaced culture system. Each EPIDERM™ culture has multiple layers of progressively differentiated keratinocytes, closely resembling human epidermis. EPIDERM™ EPI-200-hydrocortisone-free (hereinafter EPI-200-HCF) cultures are used because these cultures show a strong inflammatory response to irritants. Cultures are incubated in medium that is also hydrocortisone-free (EPI-100-MM-HCF). All work with the cultures is carried out under sterile conditions in a biological safety cabinet.
(§3) Experiments using the EPI-200-HCF cultures are conducted in six-well plates supplied with the cultures. Each well of the plate is filled with 900 microliters of pre-warmed EPI-100-MM-HCF medium, and then one EPI-200-HCF culture insert (shipped in 24-well format) is carefully transferred into the center of each well such that no air bubbles are trapped underneath the insert. After all of the culture inserts are transferred, the six-well plates are incubated in a 37° C., 5% CO2 tissue culture incubator for at least two hours.
(§4) During the time the cultures are acclimating, the controls and test samples to be applied to the cultures are prepared. Sufficient material is prepared such that quadruplicate cultures can be dosed with about 100 microliters of the control or test sample. Throughout this section, the word “water” refers to autoclaved, Milli-Q water.
(§5) For each experiment, three controls are run. The first control is water. The second control is a freshly-made solution of 0.125% Triton-X-100 in water, prepared by diluting the 1% Triton-X-100 stock solution shipped with the EPIDERM™ cultures. The third control is infant irritating bowel movement (hereinafter IIBM). IIBM is prepared as described in the PREPARATION OF INFANT […] method of the TEST METHODS section. At the time of use, the required number of tubes of IIBM are thawed at room temperature and 250 microliter aliquots are dispensed into 1.5 ml polypropylene microfuge tubes using a positive displacement pipettor. To each microfuge tube is then added 10 microliters of a 1 N NaOH solution to raise the pH and ensure activity of the fecal enzymes. For the IIBM control, an additional 250 microliters of water is added, and the tube is mixed thoroughly using a vortex mixer.
(§6) For preparation of the test samples, a suspension in water of the material to be tested is first prepared. As an example, a 1% suspension of zinc oxide in water is prepared by weighing out 0.1 grams of zinc oxide into a 15 ml polypropylene tube (such as Cat No. 21008-935 from VWR) and adding sufficient water to bring the volume to 10 milliliters. Each suspension is vortexed thoroughly and allowed to sit for at least one hour at room temperature prior to use. To ascertain the irritancy of the test sample by itself, the neat suspension is applied to the EPIDERM™ culture. To ascertain the ability of the test sample to reduce the irritancy of IIBM, 250 microliters of the suspension is added to a microfuge tube already containing a 250 microliter aliquot of IIBM plus 10 microliters of 1 N NaOH (as prepared above). […]

For another series, the system named is EPIDERM™ cultures. The series can be described thus: Epiderm culture viability, MTT assay. Format: cell-based, human. Particulars: mixed with IIBM, 16 hours, normalized to water control.
From the text: as §1, §2, §3, §4, §5, §6
For orientation: Tetrazolium assays rely on reduction of a dye to a coloured formazan, in cell work by metabolically active cells.

This note sets out measurements from patent publication US20060171971A1, “Composition for wet wipes containing a non-irritating skin health benefit ingredient and the process for making” (The Procter & Gamble Company, priority 2005, published 2006).

Where “and” joins values, the source holds several entries; their conditions need not be identical. Identical values can stand only once.

In the case of `O=C([O-])[O-].[Zn+2]` [zinc carbonate], in series [1], the “available (labile) Zn2+, binary visual assessment of colour change” value (“available (labile) Zn2+ … of colour change” for short) is reported as “having available Zn^2+”.
As for `[O]=[Zn]` [Zinc Oxide, zinc oxide], the “Mean % IL-1α Reduction” value in the series with IL-1α (zinc oxide 31 mM (0.25% w/w)) was 68%; in the series with IL-1α (zinc oxide 63 mM (0.5% w/w)) it was 76%; in the series with IL-1α (zinc oxide 125 mM (1.0% w/w)), 90%. Further, the “Normalized EPIDERM Viability” value in the series on EPIDERM™ cultures (zinc oxide 31 mM (0.25% w/w)) was determined as 95%; in the series with EPIDERM™ cultures (zinc oxide 63 mM (0.5% w/w)) it was 95%; in the series on EPIDERM™ cultures (zinc oxide 125 mM (1.0% w/w)) it was 96%. Also, in series [1], the “available (labile) Zn2+ … of colour change” value is reported as “having available Zn^2+”.
`O=S(=O)([O-])[O-].[Zn+2]` [Zinc Sulfate, zinc sulfate]: the “Mean % IL-1α Reduction” value was 99% and 98% in the series with IL-1α (zinc sulfate 87 mM (2.5% w/w)); 98% and 99% with IL-1α (zinc sulfate 174 mM (5.0% w/w)). For the same molecule, the “Normalized EPIDERM Viability” value in the series on EPIDERM™ cultures (zinc sulfate 87 mM (2.5% w/w)) was 44% and 28%; in the series with EPIDERM™ cultures (zinc sulfate 174 mM (5.0% w/w)), 14% and 11%.
Consider `OCC(O)CO.[Zn]` [zinc monoglycerolate], for which the “available (labile) Zn2+ … of colour change” value in series [1] is recorded as “having available Zn^2+”.
The same measure, in the same setting: to zinc stearate belongs “having available Zn^2+”.
